Results on 10 compounds are retold here after patent US20160166560A1, “Urea Compounds and Their Use as FAAH Enzyme Inhibitors” (BIAL-PORTELA & Cª, S.A., priority 2013, published 2016).

One data set has as its system CYPs. Description: CYPs metabolic stability assay in HLM (human liver microsomes). The data set is classed as in vitro ADME. The conditions noted are these: HLM 1 mg/ml protein, compound 5 μM, 60 min, 37° C.; for Control (% remain): absence of NADPH; for CYP+ (% remain): with NADPH 1 mM. As for the experimental part:
Stability of the test compounds was performed in HLM (human liver microsomes) in the presence and in the absence of NADPH.
The stability was measured using the incubation mixture (100 μl total volume) contained 1 mg/ml total protein, MgCl2 5 mM and 50 mM K-phosphate buffer. Samples were incubated in the presence and in the absence of NADPH 1 mM. Reactions were pre-incubated 5 min and the reaction initiated with the compound under test (at a concentration of 5 μM). Samples were incubated for 60 min in a shaking water bath at 37° C. The reaction was stopped by adding 100 μl of acetonitrile. Samples were then centrifuged, filtered and supematant injected in HLPC-MSD. Test compounds were dissolved in DMSO and the final concentration of DMSO in the reaction was below 0.5% (v/v). At T0 acetonitrile was added before adding the compound. All experiments were performed with samples in duplicate.

Data set [1] addresses T1, FAAH (Mus musculus, UniProt O08914).
T1 sequence (O08914 1-579): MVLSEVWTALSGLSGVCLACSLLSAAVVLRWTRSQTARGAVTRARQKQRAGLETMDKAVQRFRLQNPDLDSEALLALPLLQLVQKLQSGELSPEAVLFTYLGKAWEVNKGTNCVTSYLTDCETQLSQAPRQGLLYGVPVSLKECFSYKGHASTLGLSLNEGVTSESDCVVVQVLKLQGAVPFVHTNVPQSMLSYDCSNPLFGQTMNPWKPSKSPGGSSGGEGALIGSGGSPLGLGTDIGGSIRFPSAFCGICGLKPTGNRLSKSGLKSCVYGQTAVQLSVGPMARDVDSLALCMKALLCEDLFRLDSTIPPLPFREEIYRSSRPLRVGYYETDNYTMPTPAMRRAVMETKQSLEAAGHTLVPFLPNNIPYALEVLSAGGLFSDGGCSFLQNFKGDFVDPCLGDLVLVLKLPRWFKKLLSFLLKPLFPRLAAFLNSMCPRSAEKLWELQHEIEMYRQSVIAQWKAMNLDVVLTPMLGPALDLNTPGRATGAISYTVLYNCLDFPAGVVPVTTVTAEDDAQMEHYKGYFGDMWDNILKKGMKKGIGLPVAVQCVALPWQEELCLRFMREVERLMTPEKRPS
Description: In vitro/ex vivo FAAH activity determination in liver after intra-tracheal instillation. The conditions noted are these: remaining enzymatic activity vs controls. Details: Liver and brain fragments were removed and processed for enzymatic activity determination; from tissue; host or cells: mouse liver fragment homogenate; species or system male NMRI mice. As for the experimental part: (§1) To evaluate the selectivity of test compounds in inhibiting FAAH activity, male NMRI mice were administrated following instillation with 1 mg/kg compound and were sacrificed after 8 h treatment. Liver and brain fragments were removed and processed for enzymatic activity determination.
(§2) FAAH activity was measured as the amount of ^3H-ethanolamine formed, by liquid scintillation counting, from the hydrolysis of the substrate anandamide (AEA, labeled with ^3H on the ethanolamine part of the molecule). The percentage of remaining enzymatic activity was calculated in respect to controls and after blank subtraction. Therefore, a low value for the test compounds indicates a strong inhibitor.
(§3) Male NMRI mice (body weight range: 25-35 g) were obtained from Harlan Laboratories (Barcelona, Spain). Animals were kept 10 per cage, under controlled environmental conditions (12 hr light [8 am]/12 hr dark [8 pm]cycle; room temperature 22±1° C.). Food and tap water were allowed ad libitum. Animals were habituated to the animal facilities at least for a week prior to experiments. The experiments were all carried out during daylight hours.
(§4) Animals were fasted overnight before administration of compounds. […] After administration the animals were given atipamezole (1 mg/kg) to reverse the sedative and analgesic effects induced by the anaesthesia.
(§5) Fifteen minutes before sacrifice, animals were anesthetized with pentobarbital 60 mg/kg administrated intra-peritoneally. The brain (without cerebellum) and a fragment of liver were collected into plastic vials containing membrane buffer (3 mM MgCl2, 1 mM EDTA, 50 mM Tris HCl, pH 7.4). Glass beads (2.5 mm BioSpec Products, Bartlesville, Okla., USA) were added to the vials containing the brain and liver tissues. Tissues were stored at −20° C. until analysis.
(§6) Anandamide [ethanolamine-1-^3H-] was obtained from American Radiochemicals—with a specific activity of 60 Ci/mmol. All other reagents were obtained from Sigma-Aldrich. Optiphase Supermix was obtained from Perkin Elmer.
(§7) Brain and liver tissues were thawed and homogenized in 10 volumes of membrane buffer (3 mM MgCl2, 1 mM EDTA, 50 mM Tris HCl, pH 7.4) with homogenizer Precellys 24 Dual Tissue Homogenizer (Bertin Technologies) for 2 cycles of 5 sec (5000 rpm).
(§8) Total protein in the tissue homogenates was determined with the BioRad Protein Assay (BioRad) using a standard curve of BSA ([…]). Tissue homogenates were diluted to appropriate concentration for enzymatic determination in assay buffer (1 mM EDTA, 10 mM Tris HCl, pH 7.6).
(§9) Reaction mix (total volume 200 μL) contained 2 μM AEA (2 μM AEA+5 nM ^3H-AEA), 0.1% fatty acid free BSA, 15 μg (brain) or 5 μg (liver) protein, in assay buffer (1 mM EDTA, 10 mM Tris pH 7.6).
(§10) The test compound was used at a level of 1 mg/kg protein. After 15 minutes pre-incubation at 37° C. of the protein sample, reaction was started by the addition of the substrate solution (cold AEA+radiolabelled AEA+BSA). Reaction was carried out for 12 minutes for brain and liver tissues. Reaction was terminated by addition of 400 μL chloroform:methanol (1:1, v/v) solution. Reaction samples were vortex twice, left on ice for 5 minutes and then centrifuged in the microfuge for 7 minutes, 7000 rpm. 200 μL of the obtained supernatants were added to […] Optiphase Supermix scintillation cocktail previously distributed in 24-well plates.
(§11) Counts per minute (cpm) were determined in a Microbeta TriLux scintillation counter. In each assay blank samples (without protein) were prepared.

Data set [2] concerns the target T1, FAAH. Description: In vitro/ex vivo FAAH activity determination in brain after intra-tracheal instillation. On the set-up: Liver and brain fragments were removed and processed for enzymatic activity determination; from tissue; species or system male NMRI mice. The conditions noted are these: remaining enzymatic activity vs controls. How it is done:
as §1, §2, §3, §4, §5, §6, §7, §8, §9, §10, §11

Data set [3] is described as follows: Solubility assay in purified water. The data set is classed as physicochemical. The conditions noted are these: pH 5.7, thermodynamic from solid; purified water pH=5.6-5.8, stirring 2 h, room temperature, HPLC. How it is done: A saturated solution was prepared by adding the test compound in excess to 1 mL of purified water (pH=5.6-5.8) followed by stirring of the mixture for 2 h at room temperature. Thereupon, the un-dissolved material was removed by filtration and the amount of test compound in the filtrate was quantified by HPLC using a calibration curve.

Where [4] appears, read: 1 mg/kg intra-tracheal instillation, sacrificed after 8 h.
The mark [5] stands for this setting: tested at 0.1 mg/kg rather than 1 mg/kg.
The mark [6] stands for this setting: 1 mg/kg intra-tracheal instillation, sacrificed after 8 h, hydrochloride, 1 mg/kg.

SMILES strings stand for the structures. Where a name gives a salt, the structure may show the parent alone.

In the case of `CN(C(=O)n1cnc(-c2ccc(OS(N)(=O)=O)cc2)c1)C1CCN(c2ccc(O)cc2)CC1` [Example 28, 4-(1-((1-(4-hydroxyphenyl)piperidin-4-yl)(methyl)carbamoyl)-1H-imidazol-4-yl)phenyl sulfamate hydrochloride], in the data set with CYPs, the “Control (% remain)” value was determined as 84.8 % remain and the “CYP+ (% remain)” value is listed as 66.0 % remain. Also, the “FAAH Activity - Liver itc (% C)” value at FAAH [1] (setting [4]) is given as 3.4 % C. Besides, on FAAH [2] (setting [4]), the “FAAH Activity - Brain itc (% C)” value stood at 91.0 % C.

Consider `COc1cccc(CN2CCC(N(C)C(=O)n3cnc(-c4cccc(NS(N)(=O)=O)c4)c3)CC2)c1.CS(=O)(=O)O` [Example 23, N-(1-(3-methoxybenzyl)piperidin-4-yl)-N-methyl-4-(3-(sulfamoylamino)phenyl)-1H-imidazole-1-carboxamide methanesulfonate], for which the “FAAH Activity - Liver itc (% C)” value on FAAH [1] (setting [4]) is given as 11.5 % C. In data set [3], the solubility at 2 h was greater than 16000 µg/mL. Further, the “FAAH Activity - Brain itc (% C)” value at FAAH [2] (setting [4]) came to 82.1 % C.

Regarding `COc1cccc(CN2CCC(N(C)C(=O)n3cnc(-c4ccc(OS(N)(=O)=O)cc4)c3)CC2)c1` [Example 14, 4-(1-((1-(3-methoxybenzyl)piperidin-4-yl)(methyl)carbamoyl)-1H-imidazol-4-yl)phenyl sulfamate hydrochloride], in the data set with CYPs, the “Control (% remain)” value is 100.9 % remain and the “CYP+ (% remain)” value amounted to 68.6 % remain. Besides, on FAAH [1] (setting [4]), the “FAAH Activity - Liver itc (% C)” value was 6.0 % C. For the same compound, the “FAAH Activity - Brain itc (% C)” value on FAAH [2] (setting [4]) is 89.3 % C.

Turning to `CN(C(=O)n1cnc(-c2cccc(NC(N)=O)c2)c1)C1CCN(Cc2ccccc2)CC1.O=C(O)/C=C\C(=O)O` [Example 21, N-(1-benzylpiperidin-4-yl)-N-methyl-4-(3-ureidophenyl)-1H-imidazole-1-carboxamide maleate], the “FAAH Activity - Liver itc (% C)” value on FAAH [1] (setting [4]) turned out to be 8.2 % C. The compound also returned a solubility at 2 h in data set [3] of 4300 µg/mL. Further, the “FAAH Activity - Brain itc (% C)” value on FAAH [2] (setting [4]) amounted to 92.4 % C.

Turning to `COc1cc(CN2CCC(N(C)C(=O)n3cnc(-c4ccc(OS(N)(=O)=O)cc4)c3)CC2)ccc1F` [Example 12, 4-(1-((1-(4-fluoro-3-methoxybenzyl)piperidin-4-yl)(methyl)carbamoyl)-1 H-imidazol-4-yl)phenyl sulfamate oxalate], in the data set on CYPs, the “Control (% remain)” value came to 106.2 % remain and the “CYP+ (% remain)” value stood at 7.9 % remain. For the same compound, the “FAAH Activity - Liver itc (% C)” value on FAAH [1] (setting [4]) is 3.8 % C. Further, at FAAH [2] (setting [4]), the “FAAH Activity - Brain itc (% C)” value was 108.7 % C.

Regarding `CN(C(=O)n1cnc(-c2cccc(OS(N)(=O)=O)c2)c1)C1CCN(c2ccc(Br)c(O)c2)CC1` [Example 29, 3-(1-((1-(4-bromo-3-hydroxyphenyl)piperidin-4-yl)(methyl)carbamoyl)-1 H-imidazol-4-yl)phenyl sulfamate hydrochloride], in the data set on CYPs, the “Control (% remain)” value turned out to be 79.6 % remain and the “CYP+ (% remain)” value is 79.5 % remain. At FAAH [1] (setting [4]), the “FAAH Activity - Liver itc (% C)” value was 10.5 % C. Moreover, at FAAH [2] (setting [4]), the “FAAH Activity - Brain itc (% C)” value stood at 97.6 % C.

With `CN(C(=O)n1cnc(-c2cccc(OS(N)(=O)=O)c2)c1)C1CCN(c2ccccc2)CC1` [Example 6, 3-(1-(methyl(1-phenylpiperidin-4-yl)carbamoyl)-1H-imidazol-4-yl)phenyl sulfamate hydrochloride], in the data set with CYPs, the “Control (% remain)” value came to 88.7 % remain and the “CYP+ (% remain)” value was 12.0 % remain. On FAAH [1] (setting [4]), the “FAAH Activity - Liver itc (% C)” value stood at 1.7 % C. Also, at FAAH [2] (setting [4]), the “FAAH Activity - Brain itc (% C)” value is 82.1 % C.

`COc1cc(CN2CCC(N(C)C(=O)n3cnc(-c4cccc(C(N)=O)c4)c3)CC2)ccc1F` [Example 31, 4-(3-carbamoylphenyl)-N-(1-(4-fluoro-3-methoxybenzyl)piperidin-4-yl)-N-methyl-1H-imidazole-1-carboxamide hydrochloride]: in the data set on CYPs, the “Control (% remain)” value is listed as 111.7 % remain and the “CYP+ (% remain)” value is 18.5 % remain. Moreover, the “FAAH Activity - Liver itc (% C)” value at FAAH [1] (setting [5]) was found to be 13.1 % C. Besides, the “FAAH Activity - Brain itc (% C)” value on FAAH [2] (setting [5]) turned out to be 87.7 % C.

`CN(C(=O)n1cnc(-c2cccc(NS(C)(=O)=O)c2)c1)C1CCN(Cc2ccccc2)CC1` [Example 1, N-(1-benzylpiperidin-4-yl)-N-methyl-4-(3-(methylsulfonamido)phenyl)-1H-imidazole-1-carboxamide hydrochloride]: in the data set with CYPs, the “Control (% remain)” value is 111.4 % remain and the “CYP+ (% remain)” value came to 30.2 % remain. Besides, the “FAAH Activity - Liver itc (% C)” value at FAAH [1] (setting [4]) was 3.2 % C. Besides, the “FAAH Activity - Brain itc (% C)” value on FAAH [2] (setting [4]) came to 79.0 % C.

`COc1cc(CN2CCC(N(C)C(=O)n3cnc(-c4ccc(OS(N)(=O)=O)cc4)c3)CC2)cc(OC)c1` [Example 8, 4-(1-((1-(3,5-dimethoxybenzyl)piperidin-4-yl)(methyl)carbamoyl)-1H-imidazol-4-yl)phenyl sulfamate hydrochloride]: in the data set with CYPs (hydrochloride), the “Control (% remain)” value worked out at 93.2 % remain and the “CYP+ (% remain)” value stood at 25.2 % remain. Besides, the “FAAH Activity - Liver itc (% C)” value at FAAH [1] (setting [6]) worked out at 5.4 % C. Also, the “FAAH Activity - Brain itc (% C)” value on FAAH [2] (setting [6]) stood at 97.6 % C.
